Data set [1] concerns the target T1, human V1a receptor (Homo sapiens, UniProt P37288).
T1 construct: expressed in transfected cells; host or cells: CHO K1 (Chinese hamster ovary), also stably transfected with a modified aequorin
Description: Cellular in vitro assay for vasopressin receptor activity (V1a, aequorin luminescence). Type of data set: cell-based. As to conditions: for IC50: CHO cell line with human V1a receptor, [Arg8]-vasopressin at EC50, values are for the prodrug as such, read-out: IC50 hV1a; for ratio IC50 hV2/hV1a: selectivity ratio hV2/hV1a.

Data set [2] is described as follows: pH stability. Type of data set: physicochemical. On the procedure: 0.15 mg of the test compound is dissolved in 0.1 ml dimethylsulfoxide and 0.4 ml acetonitrile. For complete dissolution the HPLC vial with the sample solution is shaken and treated with ultrasonic irradiation. Then 1.0 ml of the respective buffer solution is added and the sample is vortexed. The sample solution is analyzed by HPLC to determine the amount of the test compound at a particular time over a period of 24 h at 37° C. The peak areas in percentage are used for quantification.
pH 4.0: Fluka buffer, Order No. 33643 (11.76 g citric acid, 2.57 g sodium chloride and 2.72 g sodium hydroxide).
pH 7.4: 90 g of sodium chloride, 13.61 g of potassium dihydrogen phosphate and 83.35 g of 1 M sodium hydroxide solution are made up to 1 litre with Millipore water and then diluted 1:10. Adjust with phosphoric acid to pH=7.4.
pH 10: Fluka buffer, Order No. 33649 (4.77 g Borax, 0.73 g sodium hydroxide).
15 μl portions of the sample solution are analysed by HPLC at different times (0 h, 1 h, 2 h, 4 h and 24 h) at 37° C. The peak areas in percentage are used for quantification.
The ratios of the peak area (F) at different times in relation to the peak area at the starting point are shown in Table 8A for representative examples: […]

Data set [3] is described as follows: Solubility. It counts as physicochemical. The settings on record: 24 h room temperature, max. 500 μg/ml; for solubility at 24 h: thermodynamic from solid. As for the experimental part: For each substance 0.5-0.6 mg are weighed exactly. In each case, sufficient medium is added to the sample in such a way that a concentration of c=500 μg/ml is obtained. This sample solution is shaken for 24 h at room temperature and 1400 rpm.
A further sample weight of 0.5-0.6 mg is required for the DMSO calibration solution. This sample is filled with DMSO to a concentration of c=600 μg/ml. Two calibration solutions are prepared from this stock solution. In a 2 ml HPLC vial, 1000 μl of DMSO are initially introduced and 34.4 μl of the stock solution are pipetted (c=20 µg/ml). […] of this solution (c=20 μg/ml) are placed in a further 2 ml HPLC vial containing 500 μl of DMSO (c=2.5 μg/ml).
After shaking the test solutions, 230 μl of the supernatant are transferred into a centrifuge tube and centrifuged at 42 000 rpm (223 000 g) for 30 min. 180 μl of the supernatant are then taken and each diluted with DMSO (1:5 sample 1; 1:100 sample 2), and transferred to HPLC vials. The two calibration solutions and the dilute sample solutions are analyzed by HPLC. Quantification is performed over the corresponding peak areas.
Distilled water; trifluoroacetic acid (Merck; 1.08262.0100); acetonitrile (HPLC grade); DMSO (Merck; 8.02912.2500).
Fluka buffer, Order No. 33643 (11.76 g citric acid, 2.57 g sodium chloride and 2.72 g sodium hydroxide).
Fluka buffer, Order No. 33646 (3.52 g potassium dihydrogenphosphate, 7.26 g sodium hydrogen phosphate).
Solution of 6.18 g sodium chloride and 3.96 g sodium dihydrogen phosphate in 1 L distilled water, adjust with 1M aqueous sodium hydroxide solution to pH 7.4.
0.6057 g TRIS was dissolved in 95 ml water, adjust to pH 8.5 with aqueous hydrochloric acid, fill with water until 100 ml volume is reached.

The mark [4] stands for this setting: Tris buffer pH 8.5, pH 8.5, aqueous buffer, pH = 8.5 Tris buffer.
The mark [5] stands for this setting: citrate buffer pH 4, pH 4, aqueous buffer, pH = 4 citrate buffer.
The mark [6] stands for this setting: phosphate buffer pH 7, pH 7, aqueous buffer, pH = 7.0 buffer.

Molecules are shown by their SMILES. Values after ≈ are worked out from the molar mass of the structure shown.

T1 sequence (P37288 whole entry): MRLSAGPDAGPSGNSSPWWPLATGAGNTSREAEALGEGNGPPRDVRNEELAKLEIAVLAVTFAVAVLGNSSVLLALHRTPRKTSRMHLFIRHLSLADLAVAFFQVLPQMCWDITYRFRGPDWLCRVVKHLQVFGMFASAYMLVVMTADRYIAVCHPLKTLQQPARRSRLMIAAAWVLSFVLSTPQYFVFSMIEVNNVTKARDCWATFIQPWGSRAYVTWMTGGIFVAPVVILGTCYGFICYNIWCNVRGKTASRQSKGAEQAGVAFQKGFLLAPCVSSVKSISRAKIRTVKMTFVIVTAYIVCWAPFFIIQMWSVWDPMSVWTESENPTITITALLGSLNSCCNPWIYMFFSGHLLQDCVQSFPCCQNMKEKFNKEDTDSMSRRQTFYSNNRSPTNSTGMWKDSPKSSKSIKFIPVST

What is called IC50 is the concentration needed to halve the response being measured. As usually defined, the solubility is how much of the substance goes into solution per volume. For `NC(=O)c1nc(Cn2nc(-c3ccc(Cl)cc3)n(C[C@H](OP(=O)(O)O)C(F)(F)F)c2=O)nn1-c1ccccc1C(F)(F)F` [Example 10, (2S)-3-[1-({5-Carbamoyl-1-[2-(trifluoromethyl)phenyl]-1H-1,2,4-triazol-3-yl}methyl)-3-(4-chlorophenyl)-5-oxo-1,5-dihydro-4H-1,2,4-triazol-4-yl]-1,1,1-trifluoropropan-2-yl Dihydrogen Phosphate], the IC50 in data set [1] turned out to be 10.6 nM. In data set [1], the “ratio IC50 hV2/hV1a” value worked out at 4.4. Further, the “% Test Compound after 4 h [F(t = 4 h) × 100/F(t = 0 h)]” value (from here on “% Test Compound after 4 h”) worked out at 100% in data set [2] (buffer pH 4, 37° C.) and 100% in data set [2] (buffer pH 7.4, 37° C.). For the same molecule, the “% Test Compound after 24 h [F(t = 24 h) × 100/F(t = 0 h)]” value (from here on “% Test Compound after 24 h”) in data set [2] (buffer pH 4, 37° C.) is on record as 100%; in data set [2] (buffer pH 7.4, 37° C.), 100%. Further, the solubility at 24 h is 479 µg/mL in data set [3] (setting [4]), 454 µg/mL in data set [3] (setting [5]) and greater than 500 µg/mL in data set [3] (setting [6]).

For `NC(=O)c1nc(Cn2nc(-c3ccc(Cl)cc3)n(C[C@H](O)C(F)(F)F)c2=O)nn1-c1ncccc1C(F)(F)F` [Example 4A, 3-({3-(4-Chlorophenyl)-5-oxo-4-[(2S)-3,3,3-trifluoro-2-hydroxypropyl]-4,5-dihydro-1H-1,2,4-triazol-1-yl}methyl)-1-[3-(trifluoromethyl)pyridin-2-yl]-1H-1,2,4-triazole-5-carboxamide], the “ratio IC50 hV2/hV1a” value in data set [1] is given as 141.0. The figures for the solubility at 24 h in data set [3] (setting [4]) and in data set [3] (setting [5]) were 6.7 µg/mL (≈ 11.6 µM) and 8.7 µg/mL (≈ 15.1 µM), respectively. Moreover, the Solubility entry in data set [3] (pH = 7.0 buffer) is on record as “not detectable”.

For `NC(=O)c1nc(Cn2nc(-c3ccc(Cl)cc3)n(C[C@H](OP(=O)(O)O)C(F)(F)F)c2=O)nn1-c1ncccc1C(F)(F)F` [Example 1, (2S)-3-[1-({5-Carbamoyl-1-[3-(trifluoromethyl)pyridin-2-yl]-1H-1,2,4-triazol-3-yl}methyl)-3-(4-chlorophenyl)-5-oxo-1,5-dihydro-4H-1,2,4-triazol-4-yl]-1,1,1-trifluoropropan-2-yl Dihydrogen Phosphate], the IC50 in data set [1] is 15.7 nM. Also, the “ratio IC50 hV2/hV1a” value in data set [1] is 12.3. Besides, the “% Test Compound after 4 h” value was found to be 100% in data set [2] (buffer pH 4, 37° C.); 99% in data set [2] (buffer pH 7.4, 37° C.); 99% in data set [2] (buffer pH 10, 37° C.). Besides, the “% Test Compound after 24 h” value in data set [2] (buffer pH 4, 37° C.) was found to be 100%; in data set [2] (buffer pH 7.4, 37° C.), 99%; in data set [2] (buffer pH 10, 37° C.) it was 98%. Also, the solubility at 24 h in data set [3] (setting [4]), in data set [3] (setting [5]) and in data set [3] (setting [6]) was greater than 500 µg/mL each time.

Regarding `NC(=O)c1nc(Cn2nc(-c3ccc(Cl)cc3)n(C[C@H](OP(=O)(O)O)C(F)(F)F)c2=O)nn1-c1ncccc1Cl` [Example 17, (2S)-3-[1-{[5-Carbamoyl-1-(3-chloropyridin-2-yl)-1H-1,2,4-triazol-3-yl]methyl}-3-(4-chloro-phenyl)-5-oxo-1,5-dihydro-4H-1,2,4-triazol-4-yl]-1,1,1-trifluoropropan-2-yl Dihydrogen Phosphate], in data set [1], the IC50 was 9.8 nM. The “ratio IC50 hV2/hV1a” value in data set [1] is on record as 13.3. For the same molecule, the “% Test Compound after 4 h” value is 100% in data set [2] (buffer pH 4, 37° C.) and 100% in data set [2] (buffer pH 7.4, 37° C.). The “% Test Compound after 24 h” value is 100% in data set [2] (buffer pH 4, 37° C.) and 100% in data set [2] (buffer pH 7.4, 37° C.). In addition, the solubility at 24 h in data set [3] (setting [4]), in data set [3] (setting [5]) and in data set [3] (setting [6]) was greater than 500 µg/mL each time.

Values taken from US11298367B2, “Prodrugs of substituted triazole derivatives and uses thereof” (Bayer Aktiengesellschaft, priority 2017, dated 2022).
